Molecular target: T1, mouse HCN2 (Mus musculus, UniProt O88703)
T1 sequence (O88703 1-863): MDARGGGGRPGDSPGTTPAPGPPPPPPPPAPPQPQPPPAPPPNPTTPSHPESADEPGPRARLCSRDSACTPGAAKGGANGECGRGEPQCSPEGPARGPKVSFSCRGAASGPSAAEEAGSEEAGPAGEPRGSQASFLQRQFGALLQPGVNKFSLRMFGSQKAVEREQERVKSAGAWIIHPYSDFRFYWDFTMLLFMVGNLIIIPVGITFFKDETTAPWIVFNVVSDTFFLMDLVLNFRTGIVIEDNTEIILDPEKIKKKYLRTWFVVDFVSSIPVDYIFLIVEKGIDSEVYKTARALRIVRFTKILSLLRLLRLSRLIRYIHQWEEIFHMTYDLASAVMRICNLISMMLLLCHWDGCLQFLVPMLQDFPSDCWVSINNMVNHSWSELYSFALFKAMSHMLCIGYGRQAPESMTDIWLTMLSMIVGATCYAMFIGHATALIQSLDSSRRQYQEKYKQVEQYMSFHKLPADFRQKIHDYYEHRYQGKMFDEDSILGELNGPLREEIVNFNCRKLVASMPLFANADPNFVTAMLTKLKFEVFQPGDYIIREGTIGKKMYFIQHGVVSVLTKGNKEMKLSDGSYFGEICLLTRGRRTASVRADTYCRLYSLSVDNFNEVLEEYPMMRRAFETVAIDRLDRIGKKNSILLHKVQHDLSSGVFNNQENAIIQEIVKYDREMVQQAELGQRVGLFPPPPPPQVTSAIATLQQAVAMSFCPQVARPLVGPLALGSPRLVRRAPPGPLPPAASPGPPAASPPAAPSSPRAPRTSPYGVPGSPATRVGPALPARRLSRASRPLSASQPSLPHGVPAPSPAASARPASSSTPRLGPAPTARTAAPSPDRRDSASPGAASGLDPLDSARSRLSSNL
Assay: patch clamp, excised inside-out patches from HEK cells
Format: biochemical
Conditions: open-channel pore blocker

Question: For `CCN(c1ccccc1)c1cc(NC)[n+](C)c(C)n1` [ZD7288], which “% inhibition at 200 μM” value is on record?
Answer: The value was “mean relative inhibition of zebrafish HCNL1 and mouse HCN2 in response to ZD7288”.
